# Measurements as given in the NIST ThermoML archive (doi:10.1016/j.tca.2015.07.011).
# Values joined by “and” are separate entries in the source; they are usually repeats but may differ in a detail not shown here. Equal entries are not always repeated. Numbers after ± are expanded uncertainties.
# Legend:
# [1] = Molar enthalpy of transition or fusion; settings: DSC
# [2] = for mass density: 293 K, 101.33 kPa, Pycnometric method; for vapor or sublimation pressure: Transpiration method
smiles,measurement,setting,value
CC(C)COc1cccc(C(=O)O)c1 [3-iso-butoxybenzoic acid],Molar enthalpy of transition or fusion,[1]; Crystal,6.02 ± 0.167 kcal/mol
same,mass density,[2]; Crystal,1130 ± 200 kg/m3
same,vapor or sublimation pressure,"[2]; 354.8 K, Liquid",0.00162 ± 0.00012 kPa
same,vapor or sublimation pressure,"[2]; 356.2 K, Liquid",0.00181 ± 0.00012 kPa
same,vapor or sublimation pressure,"[2]; 357.4 K, Liquid",0.00202 ± 0.00014 kPa
same,vapor or sublimation pressure,"[2]; 359.5 K, Liquid",0.00238 ± 0.00015 kPa
same,vapor or sublimation pressure,"[2]; 361.2 K, Liquid",0.00281 ± 0.00019 kPa
same,vapor or sublimation pressure,"[2]; 363 K, Liquid",0.0032 ± 0.0002 kPa
same,vapor or sublimation pressure,"[2]; 364.2 K, Liquid",0.00358 ± 0.00023 kPa
same,vapor or sublimation pressure,"[2]; 365.7 K, Liquid",0.00406 ± 0.00027 kPa
same,vapor or sublimation pressure,"[2]; 368.3 K, Liquid",0.00493 ± 0.00032 kPa
same,vapor or sublimation pressure,"[2]; 370.9 K, Liquid",0.00601 ± 0.00043 kPa
same,vapor or sublimation pressure,"[2]; 372.7 K, Liquid",0.00707 ± 0.00049 kPa
same,vapor or sublimation pressure,"[2]; 373.7 K, Liquid",0.00763 ± 0.00053 kPa
same,vapor or sublimation pressure,"[2]; 375.3 K, Liquid",0.00871 ± 0.00059 kPa
same,vapor or sublimation pressure,"[2]; 378.2 K, Liquid",0.01099 ± 0.00074 kPa
same,vapor or sublimation pressure,"[2]; 380.1 K, Liquid",0.013 ± 0.00086 kPa
same,vapor or sublimation pressure,"[2]; 382.7 K, Liquid",0.01579 ± 0.001 kPa
same,Normal melting temperature,"[2]; Crystal, DTA",80.4 ± 1.1 °C
same,Normal melting temperature,"[2]; Crystal, visual observation",80.00 ± 3 °C
COc1ccccc1C(=O)O [2-methoxybenzoic acid],vapor or sublimation pressure,"[2]; 342.4 K, Crystal",0.00098 ± 8e-05 kPa
same,vapor or sublimation pressure,"[2]; 346.2 K, Crystal",0.00152 ± 0.0001 kPa
same,vapor or sublimation pressure,"[2]; 348.2 K, Crystal",0.00181 ± 0.00012 kPa
same,vapor or sublimation pressure,"[2]; 350.3 K, Crystal",0.00221 ± 0.00015 kPa
same,vapor or sublimation pressure,"[2]; 352.2 K, Crystal",0.00272 ± 0.00018 kPa
same,vapor or sublimation pressure,"[2]; 354.3 K, Crystal",0.00347 ± 0.00023 kPa
same,vapor or sublimation pressure,"[2]; 356.2 K, Crystal",0.00419 ± 0.00028 kPa
same,vapor or sublimation pressure,"[2]; 358.9 K, Crystal",0.00536 ± 0.00035 kPa
same,vapor or sublimation pressure,"[2]; 361.4 K, Crystal",0.0068 ± 0.00048 kPa
same,vapor or sublimation pressure,"[2]; 363.2 K, Crystal",0.00813 ± 0.00057 kPa
same,vapor or sublimation pressure,"[2]; 366.2 K, Crystal",0.01064 ± 0.00072 kPa
same,vapor or sublimation pressure,"[2]; 367.9 K, Crystal",0.01262 ± 0.00085 kPa
same,vapor or sublimation pressure,"[2]; 371.5 K, Crystal",0.01728 ± 0.0011 kPa
CC(C)COc1ccc(C(=O)O)cc1 [4-iso-butoxybenzoic acid],Molar enthalpy of transition or fusion,[1]; Crystal 1,4.52 ± 0.143 kcal/mol
same,Molar enthalpy of transition or fusion,[1]; Crystal 2,0.669 ± 0.0956 kcal/mol
same,mass density,[2]; Crystal,1130 ± 200 kg/m3
same,vapor or sublimation pressure,"[2]; 342.3 K, Crystal 2",7e-05 ± 2e-05 kPa
same,vapor or sublimation pressure,"[2]; 343.5 K, Crystal 2",8e-05 ± 2e-05 kPa
same,vapor or sublimation pressure,"[2]; 346.4 K, Crystal 2",0.00011 ± 2e-05 kPa
same,vapor or sublimation pressure,"[2]; 348.5 K, Crystal 2",0.00014 ± 2e-05 kPa
same,vapor or sublimation pressure,"[2]; 349.2 K, Crystal 2",0.00015 ± 2e-05 kPa
same,vapor or sublimation pressure,"[2]; 353.4 K, Crystal 2",0.00026 ± 2e-05 kPa
same,vapor or sublimation pressure,"[2]; 353.6 K, Crystal 2",0.00025 ± 2e-05 kPa
same,vapor or sublimation pressure,"[2]; 356.9 K, Crystal 2",0.00038 ± 3e-05 kPa
same,vapor or sublimation pressure,"[2]; 359.2 K, Crystal 2",0.00046 ± 4e-05 kPa
same,vapor or sublimation pressure,"[2]; 360.4 K, Crystal 2",0.00055 ± 5e-05 kPa
same,vapor or sublimation pressure,"[2]; 361.6 K, Crystal 2",0.00066 ± 5e-05 kPa
same,vapor or sublimation pressure,"[2]; 363.4 K, Crystal 2",0.00078 ± 5e-05 kPa
same,vapor or sublimation pressure,"[2]; 363.5 K, Crystal 2",0.00078 ± 5e-05 kPa
same,vapor or sublimation pressure,"[2]; 365.4 K, Crystal 2",0.00096 ± 7e-05 kPa
same,vapor or sublimation pressure,"[2]; 365.9 K, Crystal 2",0.00102 ± 7e-05 kPa
same,vapor or sublimation pressure,"[2]; 367.8 K, Crystal 2",0.00122 ± 9e-05 kPa
same,vapor or sublimation pressure,"[2]; 368.2 K, Crystal 2",0.00119 ± 8e-05 kPa
same,vapor or sublimation pressure,"[2]; 368.7 K, Crystal 2",0.00134 ± 0.0001 kPa
same,vapor or sublimation pressure,"[2]; 368.9 K, Crystal 2",0.0014 ± 0.0001 kPa
same,vapor or sublimation pressure,"[2]; 370.7 K, Crystal 2",0.00162 ± 0.00012 kPa
same,vapor or sublimation pressure,"[2]; 373.1 K, Crystal 2",0.00199 ± 0.00013 kPa
same,vapor or sublimation pressure,"[2]; 373.3 K, Crystal 2",0.00216 ± 0.00015 kPa
same,vapor or sublimation pressure,"[2]; 378.6 K, Crystal 2",0.00342 ± 0.00023 kPa
same,vapor or sublimation pressure,"[2]; 379.3 K, Crystal 2",0.00369 ± 0.00025 kPa
same,vapor or sublimation pressure,"[2]; 381 K, Crystal 2",0.00422 ± 0.00027 kPa
same,vapor or sublimation pressure,"[2]; 388.5 K, Crystal 2",0.0089 ± 0.0006 kPa
same,vapor or sublimation pressure,"[2]; 390.5 K, Crystal 2",0.01034 ± 0.0007 kPa
same,vapor or sublimation pressure,"[2]; 393.6 K, Crystal 2",0.01381 ± 0.00092 kPa and 0.01388 ± 0.00092 kPa
same,vapor or sublimation pressure,"[2]; 393.7 K, Crystal 2",0.0142 ± 0.00094 kPa
same,vapor or sublimation pressure,"[2]; 393.8 K, Crystal 2",0.01384 ± 0.00092 kPa
same,vapor or sublimation pressure,"[2]; 395.2 K, Crystal 2",0.01617 ± 0.0011 kPa
same,vapor or sublimation pressure,"[2]; 396.9 K, Crystal 2",0.01961 ± 0.0013 kPa
same,vapor or sublimation pressure,"[2]; 397.4 K, Crystal 2",0.02032 ± 0.0013 kPa
same,vapor or sublimation pressure,"[2]; 398.6 K, Crystal 2",0.02126 ± 0.0014 kPa
same,vapor or sublimation pressure,"[2]; 399 K, Crystal 2",0.02336 ± 0.0015 kPa
same,vapor or sublimation pressure,"[2]; 399.9 K, Crystal 2",0.02413 ± 0.0016 kPa
same,vapor or sublimation pressure,"[2]; 402.6 K, Crystal 2",0.03218 ± 0.002 kPa
same,vapor or sublimation pressure,"[2]; 403.2 K, Crystal 2",0.03283 ± 0.0021 kPa
same,Normal melting temperature,"[2]; Crystal 1, DTA",142.2 ± 1.1 °C
same,Triple point temperature,"[2]; Crystal 2, DTA",412.5 ± 1.1 K
same,Normal melting temperature,"[2]; Crystal, visual observation",140.00 ± 3 °C
CCCCOc1ccc(C(=O)O)cc1 [4-butoxybenzoic acid],vapor or sublimation pressure,"[2]; 377.8 K, Crystal",0.00164 ± 0.00012 kPa
same,vapor or sublimation pressure,"[2]; 383.4 K, Crystal",0.00285 ± 0.0002 kPa
same,vapor or sublimation pressure,"[2]; 391 K, Crystal",0.00586 ± 0.00038 kPa
same,vapor or sublimation pressure,"[2]; 396.2 K, Crystal",0.00973 ± 0.00066 kPa
same,vapor or sublimation pressure,"[2]; 399.3 K, Crystal",0.01214 ± 0.00082 kPa
same,vapor or sublimation pressure,"[2]; 401.3 K, Crystal",0.01536 ± 0.001 kPa
same,vapor or sublimation pressure,"[2]; 406.4 K, Crystal",0.02366 ± 0.0015 kPa
same,vapor or sublimation pressure,"[2]; 411.4 K, Crystal",0.03676 ± 0.0024 kPa
same,vapor or sublimation pressure,"[2]; 415.4 K, Crystal",0.04923 ± 0.0032 kPa
same,vapor or sublimation pressure,"[2]; 417.3 K, Crystal",0.05826 ± 0.0037 kPa and 0.05838 ± 0.0037 kPa
CC(C)COc1ccccc1C(=O)O [2-iso-butoxybenzoic acid],mass density,[2]; Liquid,1100 ± 100 kg/m3
same,vapor or sublimation pressure,"[2]; 343.9 K, Liquid",0.0008 ± 7e-05 kPa
same,vapor or sublimation pressure,"[2]; 353.1 K, Liquid",0.00176 ± 0.00012 kPa
same,vapor or sublimation pressure,"[2]; 363.2 K, Liquid",0.0041 ± 0.00027 kPa
same,vapor or sublimation pressure,"[2]; 365.2 K, Liquid",0.0048 ± 0.00031 kPa
same,vapor or sublimation pressure,"[2]; 369.2 K, Liquid",0.00662 ± 0.00046 kPa
same,vapor or sublimation pressure,"[2]; 371.2 K, Liquid",0.00775 ± 0.00056 kPa
same,vapor or sublimation pressure,"[2]; 371.4 K, Liquid",0.00817 ± 0.00056 kPa and 0.00791 ± 0.00054 kPa
same,vapor or sublimation pressure,"[2]; 371.5 K, Liquid",0.00808 ± 0.00058 kPa
same,vapor or sublimation pressure,"[2]; 374.2 K, Liquid",0.01017 ± 0.00068 kPa
same,vapor or sublimation pressure,"[2]; 374.4 K, Liquid",0.00999 ± 0.00066 kPa
same,vapor or sublimation pressure,"[2]; 376.5 K, Liquid",0.01179 ± 0.00078 kPa
same,vapor or sublimation pressure,"[2]; 377.3 K, Liquid",0.01245 ± 0.00084 kPa
same,vapor or sublimation pressure,"[2]; 378.5 K, Liquid",0.01391 ± 0.00092 kPa
same,vapor or sublimation pressure,"[2]; 379.2 K, Liquid",0.01467 ± 0.00096 kPa
same,vapor or sublimation pressure,"[2]; 380.1 K, Liquid",0.01546 ± 0.001 kPa
same,vapor or sublimation pressure,"[2]; 380.2 K, Liquid",0.01553 ± 0.001 kPa
same,vapor or sublimation pressure,"[2]; 382.4 K, Liquid",0.0177 ± 0.0011 kPa
same,vapor or sublimation pressure,"[2]; 384.2 K, Liquid",0.02038 ± 0.0013 kPa
same,vapor or sublimation pressure,"[2]; 385.8 K, Liquid",0.02237 ± 0.0014 kPa
same,vapor or sublimation pressure,"[2]; 388.1 K, Liquid",0.02622 ± 0.0017 kPa
same,vapor or sublimation pressure,"[2]; 390.3 K, Liquid",0.03064 ± 0.002 kPa
same,vapor or sublimation pressure,"[2]; 393 K, Liquid",0.03639 ± 0.0023 kPa
same,vapor or sublimation pressure,"[2]; 395.2 K, Liquid",0.04478 ± 0.0029 kPa
same,vapor or sublimation pressure,"[2]; 398.1 K, Liquid",0.05373 ± 0.0034 kPa
